From US7982043B2, “Protein tyrosine kinase enzyme inhibitors” (Wyeth LLC, priority 2003, dated 2011)
Converted amounts (≈) assume the structure as drawn.

Columns and labels:
Format in all cases: cell-based
SK-Br-3 cells = experiment: Cell proliferation assay (SRB), SK-Br-3; conditions: EGFR −, Her-2 +++, 2 days, SRB; for IC50: Homo sapiens, SK-BR-3, 48 h, read-out: CELL IC50 SKBr3
A431 cells = experiment: Cell proliferation assay (SRB), A431; conditions: EGFR +++, Her-2 +, 2 days, SRB; for IC50: Homo sapiens, A-431, 48 h, read-out: CELL IC50 A431
MDA-MB-435 cells = experiment: Cell proliferation assay (SRB), MDA-MB-435; conditions: EGFR −, Her-2 −, 2 days, SRB; for IC50: Homo sapiens, MDA-MB-435, 48 h, read-out: CELL IC50 MDA-MB-435
[1] = target: mouse fibroblast cell line transfected with the HER-2 oncogene (3T3/neu) (UniProt P04626, cells depend on it, species not given); experiment: Cell proliferation assay (SRB), 3T3/neu; conditions: EGFR −, Her-2 +++, 2 days, SRB; for GI50: read-out: CELL IC50 3T3/NEU (converted)
SW620 cells = experiment: Cell proliferation assay (SRB), SW620; conditions: EGFR −, Her-2 −, 2 days, SRB; for IC50: Homo sapiens, SW-620, 48 h, read-out: CELL IC50 SW620

Compound | IC50 (SK-Br-3 cells) | IC50 (A431 cells) | GI50 [1] | IC50 (SW620 cells) | also measured
CCOc1cc2ncc(C#N)c(Nc3ccc(Sc4nc(C)cc(C)n4)c(Cl)c3)c2cc1[N+](=O)[O-] [Example 74, 4-{3-chloro-4-[(4,6-dimethyl-2-pyrimidinyl)sulfanyl]anilino}-7-ethoxy-6-nitro-3-quinolinecarbonitrile] | > 5 µg/mL | > 5 µg/mL | > 9.86 µM | > 5 µg/mL | IC50 (MDA-MB-435 cells): 4.1 µg/mL (≈ 8.09 µM)
COc1cc2c(Nc3ccc(Sc4nccn4C)c(Cl)c3)c(C#N)cnc2cc1OCCCn1ccnn1 [Example 73, 4-{3-chloro-4-[(1-methyl-1H-imidazol-2-yl)sulfanyl]anilino}-6-methoxy-7-[3-(1H-1,2,3-triazol-1-yl)propoxy]-3-quinolinecarbonitrile] | 0.104 µg/mL (≈ 0.19 µM) | 1.83 µg/mL (≈ 3.35 µM) | 1.78 µM | 3.69 µg/mL (≈ 6.75 µM) | 
CCOc1cc2ncc(C#N)c(Nc3ccc(Nc4nnc(C(F)(F)F)s4)c(Cl)c3)c2cc1[N+](=O)[O-] [Example 52, 4-(3-chloro-4-{[5-(trifluoromethyl)-1,3,4-thiadiazol-2-yl]amino}anilino)-7-ethoxy-6-nitro-3-quinolinecarbonitrile] | 1.22 µg/mL (≈ 2.28 µM) | 1.79 µg/mL (≈ 3.34 µM) | 3.53 µM | 2.54 µg/mL (≈ 4.74 µM) | IC50 (MDA-MB-435 cells): 1.84 µg/mL (≈ 3.43 µM)
COc1cc2ncc(C#N)c(Nc3ccc(Sc4nccs4)c(Cl)c3)c2cc1N [Example 39, 6-amino-4-{[3-chloro-4-(1,3-thiazol-2-ylsulfanyl)phenyl]amino}-7-methoxy-3-quinolinecarbonitrile] | 0.236 µg/mL (≈ 0.536 µM) | 0.663 µg/mL (≈ 1.51 µM) | 0.757 µM | 0.55 µg/mL (≈ 1.25 µM) | IC50 (MDA-MB-435 cells): 0.65 µg/mL (≈ 1.48 µM)
CCOc1cc2ncc(C#N)c(Nc3ccc4c(c3)S(=O)(=O)C=C4)c2cc1OCC [Example 30, 4-(1,1-Dioxo-1H-1-benzo[b]thiophen-6-ylamino)-6,7-diethoxy-q uinoline-3-carbonitrile] |  |  |  |  | CELL IC50 SKBr3 (SK-Br-3 cells): 0.336 µg/mL; CELL IC50 A431 (A431 cells): 0.257 µg/mL; CELL IC50 MDA-MB-435 (MDA-MB-435 cells): 0.00328 µg/mL; CELL IC50 3T3/NEU [1]: 0.251 µg/mL; CELL IC50 SW620 (SW620 cells): 0.146 µg/mL
CCOc1cc2ncc(C#N)c(Nc3ccc4c(c3)CCC4)c2cc1OCC [Example 26, 6,7-Diethoxy-4-(indan-5-ylamino)-quinoline-3-carbonitrile] |  |  | 0.053 µM | 0.294 µg/mL (≈ 0.787 µM) | 
COc1cc2ncc(C#N)c(Nc3ccc(-n4ccnc4)c(Cl)c3)c2cc1[N+](=O)[O-] [Example 41] |  |  |  |  | CELL IC50 SKBr3 (SK-Br-3 cells): 1.48 µg/mL; CELL IC50 A431 (A431 cells): 1.79 µg/mL; CELL IC50 MDA-MB-435 (MDA-MB-435 cells): 0.95 µg/mL; CELL IC50 3T3/NEU [1]: 1.09 µg/mL; CELL IC50 SW620 (SW620 cells): 1.66 µg/mL
CCOc1cc2ncc(C#N)c(Nc3ccc(Sc4nc(-c5ccccc5)cs4)c(C(F)(F)F)c3)c2cc1N [Example 68, 6-Amino-7-ethoxy-4-[4-(4-phenyl-thiazol-2-ylsulfanyl)-3-trifluoromethyl-phenylamino]-quinoline-3-carbonitrile] | 0.943 µg/mL (≈ 1.67 µM) | > 5 µg/mL | 4.47 µM | 3.1 µg/mL (≈ 5.5 µM) | IC50 (MDA-MB-435 cells): 2.5 µg/mL (≈ 4.44 µM)
CCOc1cc2ncc(C#N)c(Nc3ccc4c(c3)C(=O)OC4)c2cc1OCC [Example 29, 6,7-Diethoxy-4-(3-oxo-1,3-dihydro-isobenzofuran-5-ylamino)-quinoline-3-carbonitrile] |  |  | 8.48 µM |  | 
CCOc1cc2c(Nc3ccc4cn[nH]c4c3)c(C#N)cnc2cc1OC [Example 32, 6-Ethoxy-4-(1H-indazol-6-ylamino)-7-methoxy-quinoline-3-carbonitrile] |  |  | 13.4 µM |  | 
CCOc1cc2ncc(C#N)c(Nc3ccc4c(c3)CCC4=O)c2cc1OCC [Example 28, 6,7-Diethoxy-4-(1-oxo-indan-5-ylamino)-quinoline-3-carbonitrile] |  | 0.0181 µg/mL (≈ 0.0467 µM) | 0.0803 µM | 0.0244 µg/mL (≈ 0.063 µM) | 
CCOc1cc2ncc(C#N)c(Nc3ccc4cn[nH]c4c3)c2cc1OC [Example 31, 7-Ethoxy-4-(1H-indazol-6-ylamino)-6-methoxy-quinoline-3-carbonitrile] |  |  | 0.0743 µM |  | 
CCOc1cc2ncc(C#N)c(Nc3ccc4c(c3)C(=O)NCC(=O)N4C)c2cc1OCC [Example 33, 6,7-Diethoxy-4-(1-methyl-2,5-dioxo-2,3,4,5-tetrahydro-1H-benzo[e][1,4]diazepin-7-ylamino)-quinoline-3-carbonitrile] |  |  | > 11.2 µM |  | 
COc1cc2c(Nc3ccc(Sc4nccn4C)c(Cl)c3)c(C#N)cnc2cc1OCCCN1CCOCC1 [Example 51, 4-{3-chloro-4-[(1-methyl-1H-imidazol-2-yl)sulfanyl]anilino}-6-methoxy-7-[3-(4-morpholinyl)propoxy]-3-quinolinecarbonitrile] | 0.32 µg/mL (≈ 0.566 µM) | 0.775 µg/mL (≈ 1.37 µM) | 0.347 µM | 2.18 µg/mL (≈ 3.86 µM) | 
